Laboratory results as given in US8613914B2, “Peptidomimetic sulfamide compounds and antiviral uses thereof” (Novartis AG, priority 2009, dated 2013).

The compounds below were run against HCV NS3-4A serine protease (full-length NS3-4A protein) (Hepatitis C virus genotype 1a (isolate 1) (HCV), UniProt P26664) (assay: HCV NS3-4A protease assay). Conditions: strain HCV-1, fluorogenic peptide substrate, read-out: Protease assay Ex. 12 IC50.
Type: biochemical, HCV genotype 1a
Method: The inhibitory activity of certain compounds of Table A against HCV NS3-4A serine protease is determined in a homogenous assay using the full-length NS3-4A protein (genotype 1a, strain HCV-1) and a commercially available internally-quenched fluorogenic peptide substrate as described by Taliani, M., et al. 1996 Anal. Biochem. 240:60-67, which is incorporated by reference in its entirety.

Chain of HCV NS3-4A serine protease (full-length NS3-4A protein) (P26664 1027-1657): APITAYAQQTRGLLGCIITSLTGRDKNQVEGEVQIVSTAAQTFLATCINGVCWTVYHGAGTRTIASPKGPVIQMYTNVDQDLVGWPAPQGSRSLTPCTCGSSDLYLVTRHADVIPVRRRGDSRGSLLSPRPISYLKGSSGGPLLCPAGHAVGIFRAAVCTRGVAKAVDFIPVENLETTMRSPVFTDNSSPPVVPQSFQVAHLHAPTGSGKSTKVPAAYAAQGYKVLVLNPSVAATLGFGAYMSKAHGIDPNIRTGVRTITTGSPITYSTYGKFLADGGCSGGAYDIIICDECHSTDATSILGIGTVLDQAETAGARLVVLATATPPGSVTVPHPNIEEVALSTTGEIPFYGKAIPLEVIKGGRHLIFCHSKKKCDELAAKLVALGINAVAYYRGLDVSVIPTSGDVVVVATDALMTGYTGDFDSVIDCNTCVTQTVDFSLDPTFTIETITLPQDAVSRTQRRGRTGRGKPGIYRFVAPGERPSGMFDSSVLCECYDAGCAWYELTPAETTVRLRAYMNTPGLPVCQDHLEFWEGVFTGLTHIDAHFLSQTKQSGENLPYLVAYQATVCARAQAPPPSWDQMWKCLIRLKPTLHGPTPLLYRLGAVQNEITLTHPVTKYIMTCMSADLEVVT
Chain of HCV NS3-4A serine protease (full-length NS3-4A protein) (P26664 1658-1711 partner): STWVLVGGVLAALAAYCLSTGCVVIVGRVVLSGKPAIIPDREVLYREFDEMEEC

| Compound | IC50 [nM] |
| --- | --- |
| C=C[C@@H]1C[C@]1(NC(=O)[C@@H]1C[C@@]2(CN1C(=O)[C@@H](NC(=O)[C@@H](NC(=O)[C@@H]1CCCN1CC)C1CCOCC1)C1(C)CCOCC1)C(C)(C)C21CCC1)C(=O)NS(=O)(=O)N1CCCC1 [Compound 129, (5R,8S)-7-[(2S)-2-{[(2S)-2-({[(2S)-1-ethylpyrrolidin-2-yl]carbonyl}amino)-2-(tetrahydro-2H-pyran-4-yl)acetyl]amino}-2-(4-methyltetrahydro-2H-pyran-4-yl)acetyl]-10,10-dimethyl-N-{(1R,2S)-1-[(pyrrolidin-1-ylsulfonyl)carbamoyl]-2-vinylcyclopropyl}-7-azadispiro[3.0.4.1]decane-8-carboxamide] | 6 |
| C=C[C@@H]1C[C@]1(NC(=O)[C@@H]1C[C@@]2(CN1C(=O)[C@@H](NC(=O)[C@@H](NC(=O)c1cccnc1N(C)C)C1CCCCC1)C(C)(C)C)C(C)(C)C21CCC1)C(=O)NS(=O)(=O)N1CCCC1 [Compound 70, (5R,8S)-7-[(2S)-2-{[(2S)-2-cyclohexyl-2-({[2-(dimethylamino)pyridin-3-yl]carbonyl}amino)acetyl]amino}-3,3-dimethylbutanoyl]-10,10-dimethyl-N-{(1R,2S)-1-[(pyrrolidin-1-ylsulfonyl)carbamoyl]-2-vinylcyclopropyl}-7-azadispiro[3.0.4.1]decane-8-carboxamide] | 35 |
| C=C[C@@H]1C[C@]1(NC(=O)[C@@H]1C[C@@]2(CN1C(=O)[C@@H](NC(=O)[C@@H](NC(=O)[C@@H]1CCCCN1C(C)C)C1CCCCC1)C(C)C)C(C)(C)C21CCC1)C(=O)NS(=O)(=O)N(CC)CC [Compound 132, (5R,8S)-7-[(2S)-2-{[(2S)-2-cyclohexyl-2-({[(2S)-1-isopropylpiperidin-2-yl]carbonyl}amino)acetyl]amino}-3-methylbutanoyl]-N-[(1R,2S)-1-{[(diethylamino)sulfonyl]carbamoyl}-2-vinylcyclopropyl]-10,10-dimethyl-7-azadispiro[3.0.4.1]decane-8-carboxamide] | 2.8 |
| C=C[C@@H]1C[C@]1(NC(=O)[C@@H]1C[C@@]2(CN1C(=O)[C@@H](NC(=O)[C@@H](NC(=O)[C@@H]1CCCCN1C(C)C)C(C)(C)C)C(C)C)C(C)(C)C21CCC1)C(=O)NS(=O)(=O)N(CC)CC [Compound 131, (5R,8S)-N-[(1R,2S)-1-{[(diethylamino)sulfonyl]carbamoyl}-2-vinylcyclopropyl]-7-[(2S)-2-{[(2S)-2-({[(2S)-1-isopropylpiperidin-2-yl]carbonyl}amino)-3,3-dimethylbutanoyl]amino}-3-methylbutanoyl]-10,10-dimethyl-7-azadispiro[3.0.4.1]decane-8-carboxamide] | 5.5 |
| C=C[C@@H]1C[C@]1(NC(=O)[C@@H]1C[C@@]2(CN1C(=O)[C@@H](NC(=O)[C@@H](NC(=O)[C@H]1CCCCN1C)C1CCCCC1)C(C)(C)C)C(C)(C)C21CCC1)C(=O)NS(=O)(=O)N1CCCC1 [Compound 48, (5R,8S)-7-[(2S)-2-{[(2S)-2-cyclohexyl-2-({[(2R)-1-methylpiperidin-2-yl]carbonyl}amino)acetyl]amino}-3,3-dimethylbutanoyl]-10,10-dimethyl-N-{(1R,2S)-1-[(pyrrolidin-1-ylsulfonyl)carbamoyl]-2-vinylcyclopropyl}-7-azadispiro[3.0.4.1]decane-8-carboxamide] | 0.9 |
| C=C[C@@H]1C[C@]1(NC(=O)[C@@H]1C[C@@]2(CN1C(=O)[C@@H](NC(=O)[C@@H](NC(=O)[C@H]1CCN1C(C)C)C1CCCCC1)C(C)(C)C)C(C)(C)C21CCC1)C(=O)NS(=O)(=O)N1CCCC1 [Compound 18, (5R,8S)-7-[(2S)-2-{[(2S)-2-cyclohexyl-2-({[(2R)-1-isopropylazetidin-2-yl]carbonyl}amino)acetyl]amino}-3,3-dimethylbutanoyl]-10,10-dimethyl-N-{(1R,2S)-1-[(pyrrolidin-1-ylsulfonyl)carbamoyl]-2-vinylcyclopropyl}-7-azadispiro[3.0.4.1]decane-8-carboxamide] | 10 |
| C=C[C@@H]1C[C@]1(NC(=O)[C@@H]1C[C@@]2(CN1C(=O)[C@@H](NC(=O)[C@@H](NC(=O)[C@@H]1SCCN1CC)C1CCCCC1)C(C)(C)C)C(C)(C)C21CCC1)C(=O)NS(=O)(=O)N1CCCC1 [Compound 144, (5R,8S)-7-[(2S)-2-{[(2S)-2-cyclohexyl-2-({[(2S)-3-ethyl-1,3-thiazolidin-2-yl]carbonyl}amino)acetyl]amino}-3,3-dimethylbutanoyl]-10,10-dimethyl-N-{(1R,2S)-1-[(pyrrolidin-1-ylsulfonyl)carbamoyl]-2-vinylcyclopropyl}-7-azadispiro[3.0.4.1]decane-8-carboxamide] | 9 |
| C=C[C@@H]1C[C@]1(NC(=O)[C@@H]1C[C@@]2(CN1C(=O)[C@@H](NC(=O)[C@@H](NC(=O)[C@H]1CCCCN1C(C)C)C1CCCCC1)C(C)(C)C)C(C)(C)C21CCC1)C(=O)NS(=O)(=O)N(C)CC [Compound 92, (5R,8S)-7-[(2S)-2-{[(2S)-2-cyclohexyl-2-({[(2R)-1-isopropylpiperidin-2-yl]carbonyl}amino)acetyl]amino}-3,3-dimethylbutanoyl]-N-[(1R,2S)-1-({[ethyl(methyl)amino]sulfonyl}carbamoyl)-2-vinylcyclopropyl]-10,10-dimethyl-7-azadispiro[3.0.4.1]decane-8-carboxamide] | 3 |
| C=C[C@@H]1C[C@]1(NC(=O)[C@@H]1C[C@@]2(CN1C(=O)[C@@H](NC(=O)[C@@H](NC(=O)[C@@H]1CCCCN1CC)C1CCCCC1)C(C)(C)C)C(C)(C)C21CCC1)C(=O)NS(=O)(=O)N1CCCC1 [Compound 37, (5R,8S)-7-[(2S)-2-{[(2S)-2-cyclohexyl-2-({[(2S)-1-ethylpiperidin-2-yl]carbonyl}amino)acetyl]amino}-3,3-dimethylbutanoyl]-10,10-dimethyl-N-{(1R,2S)-1-[(pyrrolidin-1-ylsulfonyl)carbamoyl]-2-vinylcyclopropyl}-7-azadispiro[3.0.4.1]decane-8-carboxamide] | 3.3 |
| C=CC1CC1(NC(=O)[C@@H]1C[C@@]2(CN1C(=O)[C@@H](NC(=O)[C@@H](NC(=O)C1CCCCN1C(C)C)C1CCCCC1)C(C)(C)C)C(C)(C)C21CCC1)C(=O)NS(=O)(=O)N1CC(F)(F)C1 (stereo partly drawn) [Compound 164, (5R,8S)-7-[(2S)-2-{[(2S)-2-cyclohexyl-2-{[(1-isopropylpiperidin-2-yl)carbonyl]amino}acetyl]amino}-3,3-dimethylbutanoyl]-N-(1-{[(3,3-difluoroazetidin-1-yl)sulfonyl]carbamoyl}-2-vinylcyclopropyl)-10,10-dimethyl-7-azadispiro[3.0.4.1]decane-8-carboxamide] | 8 |
| C=C[C@@H]1C[C@]1(NC(=O)[C@@H]1C[C@@]2(CN1C(=O)[C@@H](NC(=O)[C@@H](NC(=O)[C@@H]1CCCCN1C(C)C)C1(C)CCCCC1)C(C)(C)C)C(C)(C)C21CCC1)C(=O)NS(=O)(=O)N1CCCC1 [Compound 135, (5R,8S)-7-[(2S)-2-{[(2S)-2-({[(2S)-1-isopropylpiperidin-2-yl]carbonyl}amino)-2-(1-methylcyclohexyl)acetyl]amino}-3,3-dimethylbutanoyl]-10,10-dimethyl-N-{(1R,2S)-1-[(pyrrolidin-1-ylsulfonyl)carbamoyl]-2-vinylcyclopropyl}-7-azadispiro[3.0.4.1]decane-8-carboxamide] | 4.5 |
| C=C[C@@H]1C[C@]1(NC(=O)[C@@H]1C[C@@]2(CN1C(=O)[C@@H](NC(=O)[C@@H](NC(=O)c1cnccn1)C1CCOCC1)C(C)(C)C)C(C)(C)C21CCC1)C(=O)NS(=O)(=O)N1CCCC1 [Compound 43, (5R,8S)-7-[(2S)-3,3-dimethyl-2-{[(2S)-2-[(pyrazin-2-ylcarbonyl)amino]-2-(tetrahydro-2H-pyran-4-yl)acetyl]amino}butanoyl]-10,10-dimethyl-N-{(1R,2S)-1-[(pyrrolidin-1-ylsulfonyl)carbamoyl]-2-vinylcyclopropyl}-7-azadispiro[3.0.4.1]decane-8-carboxamide] | 60 |
| C=C[C@@H]1C[C@]1(NC(=O)[C@@H]1C[C@@]2(CN1C(=O)[C@@H](NC(=O)[C@@H](NC(=O)[C@@H]1CCCCN1C(C)C)C1CCCCC1)C(C)(C)C)C(C)(C)C21CCC1)C(=O)NS(=O)(=O)N1CCC(F)(F)C1 [Compound 143, (5R,8S)-7-[(2S)-2-{[(2S)-2-cyclohexyl-2-({[(2S)-1-isopropylpiperidin-2-yl]carbonyl}amino)acetyl]amino}-3,3-dimethylbutanoyl]-N-[(1R,2S)-1-{[(3,3-difluoropyrrolidin-1-yl)sulfonyl]carbamoyl}-2-vinylcyclopropyl]-10,10-dimethyl-7-azadispiro[3.0.4.1]decane-8-carboxamide] | 3 |
| CCCN(C)S(=O)(=O)NC(=O)[C@@]1(NC(=O)[C@@H]2C[C@@]3(CN2C(=O)[C@@H](NC(=O)[C@@H](NC(=O)[C@@H]2CCCCN2C(C)C)C2CCCCC2)C(C)(C)C)C(C)(C)C32CCC2)C[C@H]1CC [Compound 142, (5R,8S)-7-[(2S)-2-{[(2S)-2-cyclohexyl-2-({[(2S)-1-isopropylpiperidin-2-yl]carbonyl}amino)acetyl]amino}-3,3-dimethylbutanoyl]-N-[(1R,2R)-2-ethyl-1-({[methyl(propyl)amino]sulfonyl}carbamoyl)cyclopropyl]-10,10-dimethyl-7-azadispiro[3.0.4.1]decane-8-carboxamide] | 10 |
| C=C[C@@H]1C[C@]1(NC(=O)[C@@H]1C[C@@]2(CN1C(=O)[C@@H](NC(=O)[C@@H](NC(=O)[C@@H]1CCCN1C1CCCC1)C1CCCCC1)C(C)(C)C)C(C)(C)C21CCC1)C(=O)NS(=O)(=O)N1CCCC1 [Compound 28, (5R,8S)-7-[(2S)-2-{[(2S)-2-cyclohexyl-2-({[(2S)-1-cyclopentylpyrrolidin-2-yl]carbonyl}amino)acetyl]amino}-3,3-dimethylbutanoyl]-10,10-dimethyl-N-{(1R,2S)-1-[(pyrrolidin-1-ylsulfonyl)carbamoyl]-2-vinylcyclopropyl}-7-azadispiro[3.0.4.1]decane-8-carboxamide] | 2 |
